These results are taken from ChEMBL document CHEMBL5705896 (ACS Chem Biol, 2013).

In data set [1] the target is T1, Histone-lysine N-methyltransferase EZH2 (Homo sapiens, UniProt Q15910). Briefly: Inhibition of EZH2 methyltransferase activity (unknown origin) in PRC2 complex using 3H-SAM as substrate by Scintillation proximity assay.
Target sequence in this assay (Q15910 whole entry): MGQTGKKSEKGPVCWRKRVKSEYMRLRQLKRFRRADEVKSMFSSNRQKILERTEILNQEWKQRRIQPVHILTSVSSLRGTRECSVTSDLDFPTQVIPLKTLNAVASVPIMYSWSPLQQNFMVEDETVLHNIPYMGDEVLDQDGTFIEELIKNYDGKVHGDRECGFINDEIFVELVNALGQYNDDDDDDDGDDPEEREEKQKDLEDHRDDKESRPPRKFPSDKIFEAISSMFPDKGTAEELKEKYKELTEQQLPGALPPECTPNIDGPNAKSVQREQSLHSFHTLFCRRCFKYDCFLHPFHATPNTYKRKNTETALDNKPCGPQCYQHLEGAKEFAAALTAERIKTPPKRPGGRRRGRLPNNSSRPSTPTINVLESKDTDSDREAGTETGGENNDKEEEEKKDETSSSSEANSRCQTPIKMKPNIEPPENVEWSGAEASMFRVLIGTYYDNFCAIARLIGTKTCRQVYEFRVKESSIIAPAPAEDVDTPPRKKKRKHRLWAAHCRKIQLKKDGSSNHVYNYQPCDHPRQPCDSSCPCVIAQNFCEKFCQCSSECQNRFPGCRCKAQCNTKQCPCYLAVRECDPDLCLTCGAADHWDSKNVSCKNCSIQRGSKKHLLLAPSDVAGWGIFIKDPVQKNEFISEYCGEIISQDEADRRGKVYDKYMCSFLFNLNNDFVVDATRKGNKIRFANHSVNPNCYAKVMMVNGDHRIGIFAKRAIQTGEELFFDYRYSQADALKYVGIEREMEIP
Data set [2] concerns the target Histone-lysine N-methyltransferase EZH1 (Homo sapiens, UniProt Q92800). Briefly: Inhibition of EZH1 methyltransferase activity (unknown origin) in PRC2 complex using 3H-SAM as substrate by Scintillation proximity assay.
Data set [3] addresses Histone-lysine N-methyltransferase EZH2 (Homo sapiens, UniProt Q15910, Y641F). The data set is described as follows: Inhibition of EZH2 Y641F mutant (unknown origin) using HMT as substrate incubated for 60 mins by luminescence based analysis.
The nature of data set [4]: Cytotoxicity against human MCF-10A cells assessed as reduction in cell viability by alamar blue assay. The format is toxicity, cell-based.
The subject of data set [5] is DB. The data set is described as follows: Antiproliferative activity against human DB cells assessed as reduction in cell viability at 3000 nM measured after 8 days by cell proliferation assay. The class given is functional, cell-based. The settings on record: time 8.0 day.
For data set [6], the system named is DB. Briefly: Downregulation of H3K27me3 level in human DB cells at 3000 nM measured after 3 days. The format is functional, cell-based. The conditions noted are these: time 3.0 day.
Data set [7] relates to DB. Briefly: Downregulation of EZH2 level in human DB cells at 3000 nM measured after 3 days. The settings on record: time 3.0 day. The class given is functional, cell-based.
The target in data set [8] is Histone-lysine N-methyltransferase EZH2 (Mus musculus) (UniProt Q61188). The data set is described as follows: Binding affinity to EZH2 in mouse MEF cells expressing YPet fluorophore assessed as increase in fluorescence intensity in nucleus at 3.75 uM incubated for 15 mins. The format is cell-based.
In data set [9] the target is T1, Histone-lysine N-methyltransferase EZH2. Briefly: Binding affinity to GFP-tagged EZH2 in HEK293 cells assessed as nuclear colocalization at 3.75 uM incubated for 15 mins by imaging based analysis. The class given is cell-based.
Target sequence in this assay (Q15910 whole entry, looked up): as the sequence (Q15910 whole entry) above

The structures appear in SMILES notation. Active and inactive are the calls of the source. The calls are words filed in the database; no cut-off is given here. A value given as a limit tells only on which side of the number the result lay.

Chain of Histone-lysine N-methyltransferase EZH1 (Q92800 whole entry): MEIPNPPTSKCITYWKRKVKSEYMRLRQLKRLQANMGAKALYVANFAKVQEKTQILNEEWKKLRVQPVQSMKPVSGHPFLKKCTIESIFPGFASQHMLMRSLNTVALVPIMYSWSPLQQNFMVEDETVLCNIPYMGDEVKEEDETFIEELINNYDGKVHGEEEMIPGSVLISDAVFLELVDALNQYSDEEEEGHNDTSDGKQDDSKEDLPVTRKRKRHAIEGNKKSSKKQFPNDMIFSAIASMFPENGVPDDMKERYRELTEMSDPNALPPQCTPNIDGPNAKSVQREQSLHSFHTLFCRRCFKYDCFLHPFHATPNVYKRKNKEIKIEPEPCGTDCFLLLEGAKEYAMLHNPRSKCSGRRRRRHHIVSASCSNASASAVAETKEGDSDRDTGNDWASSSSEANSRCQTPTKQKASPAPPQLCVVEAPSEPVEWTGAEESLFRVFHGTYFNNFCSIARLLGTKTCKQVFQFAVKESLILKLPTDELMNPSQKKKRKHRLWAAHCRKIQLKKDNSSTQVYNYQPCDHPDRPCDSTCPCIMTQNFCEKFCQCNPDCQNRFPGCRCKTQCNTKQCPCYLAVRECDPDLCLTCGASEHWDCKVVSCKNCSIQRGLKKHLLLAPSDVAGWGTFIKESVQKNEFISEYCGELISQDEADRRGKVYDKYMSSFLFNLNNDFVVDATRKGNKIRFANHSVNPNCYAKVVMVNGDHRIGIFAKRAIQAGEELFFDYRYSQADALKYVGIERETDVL
Chain of Histone-lysine N-methyltransferase EZH2 (Mus musculus) (Q61188 whole entry): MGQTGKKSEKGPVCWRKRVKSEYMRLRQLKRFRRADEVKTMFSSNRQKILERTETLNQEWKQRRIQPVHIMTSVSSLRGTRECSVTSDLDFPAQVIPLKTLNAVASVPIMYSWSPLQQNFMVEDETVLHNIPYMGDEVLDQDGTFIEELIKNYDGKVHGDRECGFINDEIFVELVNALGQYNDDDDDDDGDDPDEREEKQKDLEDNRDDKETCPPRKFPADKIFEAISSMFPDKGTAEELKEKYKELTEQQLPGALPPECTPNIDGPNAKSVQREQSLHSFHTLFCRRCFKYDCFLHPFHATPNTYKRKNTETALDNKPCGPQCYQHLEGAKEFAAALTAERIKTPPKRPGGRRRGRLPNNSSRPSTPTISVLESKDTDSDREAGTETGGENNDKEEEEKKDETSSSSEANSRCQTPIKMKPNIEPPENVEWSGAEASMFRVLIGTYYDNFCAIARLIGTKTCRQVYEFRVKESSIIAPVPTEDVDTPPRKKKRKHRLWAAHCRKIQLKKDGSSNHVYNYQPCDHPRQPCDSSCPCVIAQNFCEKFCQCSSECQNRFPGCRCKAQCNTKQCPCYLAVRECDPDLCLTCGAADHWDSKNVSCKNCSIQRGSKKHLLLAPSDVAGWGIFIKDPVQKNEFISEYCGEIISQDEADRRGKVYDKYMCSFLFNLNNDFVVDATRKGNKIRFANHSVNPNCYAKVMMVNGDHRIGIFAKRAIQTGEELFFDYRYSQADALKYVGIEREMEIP
Chain of Histone-lysine N-methyltransferase EZH2 (Homo sapiens, UniProt Q15910, Y641F) (Q15910 whole entry Y641F): as the sequence (Q15910 whole entry) above, with Y641F counted along it

With `CCCc1cc(C)[nH]c(=O)c1CNC(=O)c1cc(-c2ccc(N3CCN(C(=O)CCOCCOCCOCCOCCOCCOCCOCCOCCOCCOCCOCCOCCNC(=O)CCCC[C@@H]4SC[C@@H]5NC(=O)N[C@@H]54)CC3)nc2)cc2c1cnn2C(C)C`, the IC50 in [1] turned out to be 17 nM.
In data set [1], `CCCc1cc(C)[nH]c(=O)c1CNC(=O)c1cc(-c2ccc(N3CCN(C)CC3)nc2)cc2c1cnn2C(C)C` had an IC50 of less than 10 nM.
On to `CCCc1cc(C)[nH]c(=O)c1CNC(=O)c1cc(-c2ccc(F)cn2)cc2c1cnn2C(C)C`, for which inhibition in data set [1] was half-maximal at 10 nM (IC50).
Regarding `CCCc1cc(C)[nH]c(=O)c1CNC(=O)c1cc(-c2ccc(N3CCNCC3)nc2)cc2c1cnn2C(C)C`, in [1], the IC50 was less than 10 nM.
`CCCc1cc(C)[nH]c(=O)c1CNC(=O)c1cc(-c2ccc(N3CCN(CC)CC3)nc2)cc2c1cnn2C(C)C` showed an IC50 in data set [1] of less than 10 nM.
`CCCc1cc(C)[nH]c(=O)c1CNC(=O)c1cc(-c2ccc(F)cc2)cc2c1cnn2C(C)C` registered an IC50 in data set [1] of 63 nM.
With `CCCc1cc(C)n(C)c(=O)c1CN(C)C(=O)c1cc(-c2ccc(N3CCN(C(C)C)CC3)nc2)cc2c1cnn2C(C)C`, the IC50 in [1] was 13000 nM; in data set [2], 62000 nM; in data set [3], greater than 200000 nM. For the same compound, the half-maximal effective concentration (EC50) in data set [4] stood at 27500 nM. Besides, the outcome with DB [5], in the data set on DB [6] and with DB [7] was inactive.
As for `CCCc1cc(C)[nH]c(=O)c1CNC(=O)c1cc(-c2ccc(N3CCN(CCCCc4cn(CCN5C(=O)/C(=C/C=C/C=C6\N(CCC(=O)OCOC(C)=O)c7ccc(C(=O)OCOC(C)=O)cc7C6(C)C)C(=O)N(CC)C5=O)nn4)CC3)nc2)cc2c1cnn2C(C)C`, the IC50 in data set [1] turned out to be 21 nM. Also, the outcome in [8] and in data set [9] was Active.
